Measured values as given in publication PMC6713628 (Investigational new drugs, 2019).
Read-outs that look alike come from different tables or passages of the source.

Assays:
[1] = lactone form; ref 32 (Leggas et al., 2009); cited from earlier work
platelets = type: in vivo, cancer patients with solid tumors (humans); conditions: sigmoid Emax model
[2] = more lipophilic than camptothecin; cited from earlier work
[3] = for IIV of clearance: univariate analysis
UGT1A1 = conditions: primarily hepatic UGT1A1; cited from earlier work
white blood cells = experiment: Emax model of percent decrease of WBC from baseline to nadir versus exposure; type: in vivo, cancer patients with solid tumors (humans)

SMILES: CC[C@@]1(O)C(=O)OCc2c1cc1n(c2=O)Cc2c-1nc1ccc(O)cc1c2[Si](C)(C)C(C)(C)C [AR-67, 7-t-butyldimethylsilyl-10-hydroxycamptothecin]
- overall protein binding, lactone [1]: 95.4%
- AUC ED50, percent decrease of platelets (platelets; AUC0-∞ as independent variable, 22 patients, Cycle 1): 276.8 ng·h/mL
- Cmax ED50, percent decrease of platelets (platelets; Cmax as independent variable): 0.2811 µg/mL
- lipophilicity relative to camptothecin [2]: about 25 times
- AGE on V1 (covariate effect exponent), estimate ([3]; V1=V1TV×(AGE/62)^θ, original dataset): 3.36
- Interindividual variability in V1 ([3]; before incorporation of age into the model): 118%
- AGE on V1, bootstrap median ([3]; bootstrap n=1000 datasets): 3.48
- CL, bootstrap median ([3]; bootstrap n=1000 datasets): 31.9 L/h
- Q, bootstrap median ([3]; bootstrap n=1000 datasets): 29.0 L/h
- V1, bootstrap median ([3]; bootstrap n=1000 datasets): 6.65 L
- V2, bootstrap median ([3]; bootstrap n=1000 datasets): 25.8 L
- ω2 V1, bootstrap median ([3]; bootstrap n=1000 datasets): 0.856
- Interindividual variability (CV%) of population CL ([3]; final model): 29.1%
- V2 (peripheral volume), population estimate ([3]; final model, original dataset): 25.0 L
- ω2 CL (interindividual variability), estimate ([3]; final model, original dataset): 0.0849
- ω2 V1 (interindividual variability), estimate ([3]; final model, original dataset): 0.957
- V1 (central volume), population estimate ([3]; final model, original dataset, typical value for subjects aged 62 years): 6.83 L
- Interindividual variability (CV%) of population V1 ([3]; final model, with age as covariate): 97.8%
- IIV of clearance ([3]; BSA included as covariate on CL): 25.5%
- IIV of clearance ([3]; before inclusion of BSA): 29.2%
- in vitro interaction with UGT1A1 (UGT1A1): weak
- AUC ED50, percent decrease of WBC (white blood cells; AUC0-∞ as independent variable, hyperbolic Emax model, 22 patients, Cycle 1): 397.6 ng·h/mL
- Cmax ED50, percent decrease of WBC (white blood cells; Cmax as independent variable, sigmoid Emax model): 0.3268 µg/mL
